Assay results reported in ChEMBL document CHEMBL2401661, “Cyanidin, a natural flavonoid, is an agonistic ligand for liver X receptor alpha and beta and reduces cellular lipid accumulation in macrophages and hepatocytes” (Bioorg Med Chem Lett, 2013).
Values belong to the compound of their own block, whether it stands above or below them. Active and inactive are the calls of the source. The rule behind the calls is not given here.

Experiments:
[1] = biological target: T1, Oxysterols receptor LXR-beta (Homo sapiens, UniProt P55055); experiment: Agonist activity at human LXRbeta-LBD assessed as recruitment of co-activator peptide after 2 hrs by TR-FRET assay
[2] = biological target: T2, Oxysterols receptor LXR-alpha (Homo sapiens) (UniProt Q13133); experiment: (§1) Agonist activity at human LXRalpha-LBD assessed as recruitment of co-activator peptide after 2 hrs by TR-FRET assay
T2 sequence (whole entry): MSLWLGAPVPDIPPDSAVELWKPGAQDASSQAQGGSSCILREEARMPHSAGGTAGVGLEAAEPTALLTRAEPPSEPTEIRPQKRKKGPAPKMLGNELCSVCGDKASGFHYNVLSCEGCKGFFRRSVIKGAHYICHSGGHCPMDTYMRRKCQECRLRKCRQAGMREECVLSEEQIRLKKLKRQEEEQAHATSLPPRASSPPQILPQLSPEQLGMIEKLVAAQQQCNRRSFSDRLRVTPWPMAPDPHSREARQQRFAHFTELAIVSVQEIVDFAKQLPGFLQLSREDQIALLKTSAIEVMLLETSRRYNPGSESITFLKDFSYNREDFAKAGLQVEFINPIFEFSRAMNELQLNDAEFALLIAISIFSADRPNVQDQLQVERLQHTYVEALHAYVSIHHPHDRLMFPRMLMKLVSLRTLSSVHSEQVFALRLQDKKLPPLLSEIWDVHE

[3] = biological target: T2, Oxysterols receptor LXR-alpha (Homo sapiens); experiment: (§2) Binding affinity to human LXRalpha-LBD by surface plasmon resonance
[4] = biological target: T1, Oxysterols receptor LXR-beta; experiment: Binding affinity to human LXRbeta-LBD by surface plasmon resonance
[5] = biological target: T3, Liver X receptor (Homo sapiens) (UniProt Q13133+P55055); experiment: Agonist activity at LXR in human HepG2 cells assessed as reduction in cellular triglyceride at 100 uM after 24 hrs; type: cell-based; parameters: scale not given: the % may be the effect or the level left
[6] = biological target: T3, Liver X receptor (Homo sapiens); experiment: Agonist activity at LXR in human THP1 cells assessed as reduction in cellular triglyceride at 100 uM after 24 hrs; type: cell-based; parameters: scale not given: the % may be the effect or the level left; settings: THP-1
[7] = biological target: T3, Liver X receptor (Homo sapiens); experiment: Agonist activity at LXR in human HepG2 cells assessed as reduction in cellular triglyceride after 24 hrs; type: cell-based
[8] = biological target: T3, Liver X receptor (Homo sapiens); experiment: Agonist activity at LXR in human HepG2 cells assessed as reduction in cellular cholesterol after 24 hrs; type: cell-based
[9] = biological target: T3, Liver X receptor (Homo sapiens); experiment: Agonist activity at LXR in human THP1 cells assessed as reduction in cellular cholesterol after 24 hrs; type: cell-based; settings: THP-1
[10] = biological target: T3, Liver X receptor (Homo sapiens); experiment: Agonist activity at LXR in human THP1 cells assessed as reduction in cellular triglyceride after 24 hrs; type: cell-based; settings: THP-1
[11] = biological target: T3, Liver X receptor (Homo sapiens); experiment: Agonist activity at LXR in human HepG2 cells assessed as upregulation of ABCG5 expression at 100 uM after 24 hrs by RT-qPCR analysis relative to control; type: cell-based
[12] = biological target: T3, Liver X receptor (Homo sapiens); experiment: Agonist activity at LXR in human HepG2 cells assessed as upregulation of SREBP1C expression at 100 uM after 24 hrs by RT-qPCR analysis relative to control; type: cell-based
[13] = biological target: T3, Liver X receptor (Homo sapiens); experiment: Agonist activity at LXR in human HepG2 cells assessed as upregulation of ABCA1 expression at 100 uM after 24 hrs by RT-qPCR analysis relative to control; type: cell-based
[14] = biological target: T1, Oxysterols receptor LXR-beta; experiment: Agonist activity at LXRbeta in human HepG2 cells assessed as LXRbeta transcription at 50 to 100 uM after 24 hrs by RT-qPCR analysis; type: cell-based
[15] = biological target: T2, Oxysterols receptor LXR-alpha (Homo sapiens); experiment: Induction of LXRalpha transcription in human HepG2 cells at 50 to 100 uM after 24 hrs by RT-qPCR analysis relative to control; type: cell-based
[16] = biological target: T4, Oxysterols receptor LXR-alpha (Homo sapiens, UniProt Q13133); experiment: as §1
T4 sequence (Q13133 whole entry): T2 sequence (whole entry)

[17] = biological target: T1, Oxysterols receptor LXR-beta; experiment: Agonist activity at LXRbeta (unknown origin) expressed in CHOK1 cells assessed as induction of transactivation activity at 100 uM after 24 hrs by luciferase reporter gene assay relative to control; type: cell-based; settings: CHO-K1
[18] = biological target: T4, Oxysterols receptor LXR-alpha; experiment: as §2
[19] = biological target: T2, Oxysterols receptor LXR-alpha (Homo sapiens); experiment: Agonist activity at LXRalpha (unknown origin) expressed in CHOK1 cells assessed as induction of transactivation activity at 100 uM after 24 hrs by luciferase reporter gene assay relative to control; type: cell-based; settings: CHO-K1
[20] = biological target: T2, Oxysterols receptor LXR-alpha (Homo sapiens); experiment: Agonist activity at LXRalpha (unknown origin) expressed in CHOK1 cells assessed as induction of transactivation activity at 50 uM after 24 hrs by luciferase reporter gene assay relative to control; type: cell-based; settings: CHO-K1

T1 sequence (P55055 whole entry, the tested form may be a part): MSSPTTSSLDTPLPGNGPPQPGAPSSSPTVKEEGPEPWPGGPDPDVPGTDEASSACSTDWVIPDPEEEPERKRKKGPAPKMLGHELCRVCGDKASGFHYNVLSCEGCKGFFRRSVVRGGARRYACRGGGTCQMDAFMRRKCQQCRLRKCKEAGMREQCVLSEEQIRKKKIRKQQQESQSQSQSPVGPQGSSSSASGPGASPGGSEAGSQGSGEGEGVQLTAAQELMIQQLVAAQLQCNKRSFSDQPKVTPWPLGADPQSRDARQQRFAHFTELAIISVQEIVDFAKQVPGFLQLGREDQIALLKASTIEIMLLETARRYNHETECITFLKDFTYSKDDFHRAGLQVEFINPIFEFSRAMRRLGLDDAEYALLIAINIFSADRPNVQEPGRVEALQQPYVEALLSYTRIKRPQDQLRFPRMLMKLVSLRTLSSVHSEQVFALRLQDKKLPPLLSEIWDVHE
T3 sequence (P55055 whole entry, looked up, one chain of several): as the sequence (P55055 whole entry, the tested form may be a part) above

Activity [1]: inactive
Activity [2]: inactive
Activity [3]: inactive
Activity [4]: inactive
SMILES: O=C(O)c1ccc(O)c(O)c1

Activity [5]: -23%
Activity [6]: -21%
Activity [7]: Dose-dependent effect
Activity [8]: Dose-dependent effect
Activity [9]: Dose-dependent effect
Activity [10]: Dose-dependent effect
fold change (FC) [11]: 1.4
fold change (FC) [12]: 3.6
fold change (FC) [13]: 2.5
Activity [14]: inactive
fold change (FC) [15]: 1.5
EC50 [1]: 125 µM
EC50 [16]: 3500 nM
Activity [17]: 33%
Kd [18]: 2200 nM
Kd [4]: 73.2 µM
Activity [19]: 59%
Activity [20]: 32%
SMILES: Oc1cc(O)c2cc(O)c(-c3ccc(O)c(O)c3)[o+]c2c1 [CYANIDIN]

Activity [1]: inactive
Activity [2]: inactive
Activity [3]: inactive
Activity [4]: inactive
SMILES: O=Cc1c(O)cc(O)cc1O

SMILES: CC(C)CC[C@@H](O)[C@@H](C)[C@H]1CC[C@H]2[C@@H]3CC=C4C[C@@H](O)CC[C@]4(C)[C@H]3CC[C@]12C [22(R)-HYDROXYCHOLESTEROL]
EC50 [16]: 1000 nM
